Results as given in ChEMBL document CHEMBL1137721, “Modeling the activity of furin inhibitors using artificial neural network” (Eur J Med Chem, 2009).

Target: Furin (Homo sapiens, UniProt P09958)
Test: Inhibition of human recombinant furin-dependent anthrax protective antigen processing

Chain of Furin (P09958 whole entry): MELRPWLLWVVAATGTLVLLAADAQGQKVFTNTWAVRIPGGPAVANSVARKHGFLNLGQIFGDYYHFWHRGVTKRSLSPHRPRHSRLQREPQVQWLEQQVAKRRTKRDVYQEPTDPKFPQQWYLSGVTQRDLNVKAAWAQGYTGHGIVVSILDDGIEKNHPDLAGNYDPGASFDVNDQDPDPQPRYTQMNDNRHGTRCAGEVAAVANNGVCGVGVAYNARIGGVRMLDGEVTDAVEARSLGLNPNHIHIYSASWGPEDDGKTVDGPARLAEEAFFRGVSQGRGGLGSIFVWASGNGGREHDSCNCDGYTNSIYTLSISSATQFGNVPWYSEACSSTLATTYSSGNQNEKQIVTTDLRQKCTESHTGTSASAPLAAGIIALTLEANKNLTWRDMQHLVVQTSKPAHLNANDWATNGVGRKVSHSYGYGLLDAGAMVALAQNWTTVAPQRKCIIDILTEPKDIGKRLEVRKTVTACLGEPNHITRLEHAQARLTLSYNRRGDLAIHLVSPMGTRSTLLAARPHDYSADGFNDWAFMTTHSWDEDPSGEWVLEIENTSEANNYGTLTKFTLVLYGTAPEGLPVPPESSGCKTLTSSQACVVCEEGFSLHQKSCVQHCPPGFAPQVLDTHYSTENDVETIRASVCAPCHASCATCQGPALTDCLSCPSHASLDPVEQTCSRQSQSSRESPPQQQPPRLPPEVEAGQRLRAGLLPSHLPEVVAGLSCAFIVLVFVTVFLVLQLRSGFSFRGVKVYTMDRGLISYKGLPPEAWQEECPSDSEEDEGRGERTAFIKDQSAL

SMILES | Ki [nM]
N=C(N)Nc1ccc(NC(=O)O[C@H]2C[C@@H](OC(=O)Nc3ccc(NC(=N)N)cc3)[C@H](NC(=N)N)C[C@@H]2NC(=N)N)cc1 | 812
N=C(N)Nc1ccc(O[C@H]2C[C@@H](Oc3ccc(NC(=N)N)cc3NC(=N)N)[C@H](NC(=N)N)C[C@@H]2NC(=N)N)c(NC(=N)N)c1 | 169
NC(N)=N[C@H]1C[C@@H](N=C(N)N)[C@H](Oc2ccccn2)C[C@@H]1Oc1ccccn1 | 100000
N=C(N)Nc1ccc(O[C@H]2C[C@@H](Oc3ccc(NC(=N)N)cn3)[C@H](NC(=N)N)C[C@@H]2NC(=N)N)nc1 | 42
NC(N)=Nc1ccccc1O[C@H]1C[C@@H](Oc2ccccc2N=C(N)N)[C@H](N=C(N)N)C[C@@H]1N=C(N)N | 100000
NC(N)=Nc1cnccc1O[C@H]1C[C@@H](Oc2ccncc2N=C(N)N)[C@H](N=C(N)N)C[C@@H]1N=C(N)N | 100000
NC(N)=Nc1cccnc1O[C@H]1C[C@@H](Oc2ncccc2N=C(N)N)[C@H](N=C(N)N)C[C@@H]1N=C(N)N | 100000
NC(N)=Nc1ccc(O[C@H]2C[C@@H](Oc3ccc(N=C(N)N)c4ccccc34)[C@H](N=C(N)N)C[C@@H]2N=C(N)N)c(N=C(N)N)c1 | 404
N=C(N)Nc1ccccc1NC(=O)O[C@H]1C[C@@H](OC(=O)Nc2ccccc2NC(=N)N)[C@H](NC(=N)N)C[C@@H]1NC(=N)N | 100000
N=C(N)Nc1ccc(O[C@H]2C[C@@H](Oc3ccc(NC(=N)N)c4ccccc34)[C@H](NC(=N)N)C[C@@H]2NC(=N)N)c(N)c1 | 22
NC(N)=Nc1ccc(O[C@H]2C[C@@H](Oc3ccc(N=C(N)N)c4ccccc34)[C@H](N=C(N)N)C[C@@H]2N=C(N)N)c2ccccc12 | 69
NC(N)=Nc1ccc(N[C@H]2C[C@@H](N=C(N)N)[C@H](Oc3ccc(N=C(N)N)c4ccccc34)C[C@@H]2Oc2ccc(N=C(N)N)c3ccccc23)c2ccccc12 | 423
NC(N)=Nc1ccc(O[C@H]2C[C@@H](Oc3ccc(N=C(N)N)cc3)[C@H](N=C(N)N)C[C@@H]2N=C(N)N)cc1 | 12
NC(N)=Nc1cccc(NC(=O)O[C@H]2C[C@@H](OC(=O)Nc3cccc(N=C(N)N)c3)[C@H](N=C(N)N)C[C@@H]2N=C(N)N)c1 | 1770
N=C(N)N[C@H]1C[C@@H](NC(=N)N)[C@H](Oc2ccc3nc(N)[nH]c3c2)C[C@@H]1Oc1ccc2nc(N)[nH]c2c1 | 100000
N=C(N)Nc1ccc(O[C@H]2C[C@@H](Oc3ccc(NC(=N)N)c4ccccc34)[C@H](NC(=N)N)C[C@@H]2NC(=N)N)cc1 | 6
NC(N)=Nc1ccc(O[C@@H]2C[C@H](Oc3ccc(N=C(N)N)cc3N=C(N)N)[C@@H](N=C(N)N)C[C@H]2N=C(N)N)cc1 | 89
NC(N)=Nc1ccc(N[C@H]2C[C@@H](N=C(N)N)[C@H](Oc3ccc(N=C(N)N)cc3)C[C@@H]2Oc2ccc(N=C(N)N)cc2)cc1 | 46
